Measurements reported in patent US20230312482A1, “SOS1 INHIBITORS” (Mirati Therapeutics, Inc., priority 2020, published 2023).

Tests used:
[1] = test system: pERK in MKN1 cells or H358; experiment: pERK inhibition in MKN1 or H358 cells (In-Cell Western); format: cell-based; conditions: GAPDH normalized, 1 hour with compound, MKN1 or H358 cells (not specified which)
Method: This Example illustrates that exemplary compounds of the present invention prevent KRas-mediated GTP nucleotide exchange mediated by SOS1 to inhibit KRas activity thereby inhibiting the generation of the downstream effector pERK.
(§1) MKN1 cells (15,000/w) or H358 (30,000/w) were seeded in a black clear flat bottom 96-well cell culture plate (Corning, #3904) and incubated at 37° C. overnight. Assay day 1, cells were dosed with compounds of Formula (I) with a […] starting concentration and serially diluted 3x for a total of 9 concentrations. The cells were incubated for 1 hour with the compounds solubilized in DMSO at 37° C. Cells were immediately fixed by adding 50 µL of 4% formaldehyde to all wells in a fume hood and the plates were incubated for 20 minutes at room temperature. The formaldehyde was discarded from the plates and 150 µL of ice-cold methanol was added to permeabilize the cells for 10 minutes at -20° C. The methanol was discarded from each of the plates and any liquid remaining in the plate by tapping the plate against paper towels. Cells were then blocked with 150 µL of Odyssey blocking buffer (LI-COR Biosciences #927-50010) using 0.05% Tween for 1 hour at room temperature on a shaker. The blocking buffer was discarded and 50 µL of primary antibodies pERK (cell signaling Technology #9101L; Rabbit, 1:500) and GapDH (Millipore #MAB34; Mouse, 1:5000) diluted in Odyssey blocking buffer was added. The plates were incubated overnight at 4° C. on a shaker.
On Assay day 2, the primary antibody solution was removed. Each plate was washed 3x times with 150 µL of 1x PBST (PBS + 0.1 % Tween 20) and incubated with 50 µL of secondary antibodies: Anti-Rabbit (LI-COR Biosciences #926-32211) and Anti-Mouse (LI-COR Biosciences #68070) at 1:800 dilution in Odyssey blocking buffer with Tween at room temperature on a shaker for 2 hours (protected from light). The secondary antibody solution as removed and each plate was washed with PBST 3x times. Any liquid remaining was discarded and the plate was imaged using the Licor Odyssey machine according to the manufacturer’s instruction, using a set focus length at 3 mm and both 800 nm and 700 nm filters. The GAPDH normalized scan values for each well were divided by the average of vehicle wells to get the % of pERK inhibition. The IC50 values were then calculated with the Graph pad Prism software.

[2] = target: T1, recombinant human SOS1 polypeptide (amino acids 560-1049) (Homo sapiens, UniProt Q07889); experiment: HTRF displacement assay, binding to SOS1; conditions: HTRF displacement of Cy5 labelled tracer, 1-hour incubation, Morrison equation
T1 construct: corresponding to amino acids 560-1049, expressed in E. Coli; His (N); TEV site (N); made in house; host or cells: E. coli
T1 sequence (Q07889 560-1049): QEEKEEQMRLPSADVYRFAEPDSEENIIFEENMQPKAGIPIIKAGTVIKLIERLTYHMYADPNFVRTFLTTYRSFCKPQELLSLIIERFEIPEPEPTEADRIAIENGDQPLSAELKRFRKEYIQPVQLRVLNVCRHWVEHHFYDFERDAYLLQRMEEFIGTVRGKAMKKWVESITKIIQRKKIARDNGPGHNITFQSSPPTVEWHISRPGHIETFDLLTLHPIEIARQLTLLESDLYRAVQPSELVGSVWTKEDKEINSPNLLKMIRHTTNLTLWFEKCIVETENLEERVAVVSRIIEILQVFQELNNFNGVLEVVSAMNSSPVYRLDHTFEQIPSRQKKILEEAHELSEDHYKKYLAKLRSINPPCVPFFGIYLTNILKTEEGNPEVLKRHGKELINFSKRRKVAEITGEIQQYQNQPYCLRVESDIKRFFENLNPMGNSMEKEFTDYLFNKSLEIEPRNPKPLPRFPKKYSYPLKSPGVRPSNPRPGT
Method: The ability of a compound of Formula (I) to bind to SOS1 was measured using a HTRF displacement assay. […] The HTRF ratio was calculated using the formula: [emission ⅟emission 2]*10000.
Background signals were calculated from well with a 10 µM inhibitor, known to inhibit 100% at that concentration. The background subtracted signals were converted to % binding relative to DMSO controls. Data were analyzed using XLFIT software (IDBS) using a Morrison equation for competitive binding and Ki’s were generated for compound of Formula (I).

pERK in NCI-H1435 cells = experiment: pERK inhibition in NF-1 mutant cell line NCI-H1435; format: cell-based; conditions: NCI-H1435 cells (NF-1 mutation), 1 hour with compound
Description: This Example illustrates that exemplary compounds of the present invention prevent increased KRas-mediated GTP nucleotide exchange mediated by SOS1 in NF-1 mutant cell lines to inhibit KRas activity thereby inhibiting the generation of the downstream effector pERK.
as §1, with “A cell line harboring activating mutation in NF-1 gene, NCI-H1435 (ATCC CRL-5870) and a cell line harboring activating mutation in NF-2 gene, NCI-H2052 (ATCC CRL-5915) were employed in these studies. NCI-H1435 and NCI-2052” for “MKN1”, “(15,000/w)” for “(15,000/w) or H358 (30,000/w)”
On Assay day 2, the primary antibody solution was removed. […] The IC50 values were then calculated with the Graph pad Prism software.

pERK in NCI-H2052 cells = experiment: pERK inhibition in NF-2 mutant cell line NCI-H2052; format: cell-based; conditions: Homo sapiens, NCI-H2052 cells (NF-2 mutation), 1 hour with compound

Row | Structure (SMILES) | IC50 [1] | Ki [2] | IC50 (pERK in NCI-H1435 cells) | IC50 (pERK in NCI-H2052 cells)
1 | Cc1c([C@@H](C)Nc2nn(C)c(=O)c3ccc(N4CCNCC4)cc23)cccc1C(F)(F)F [Example 1-5] | 881 nM |  |  | 
2 | Cc1c([C@@H](C)Nc2n[nH]c(=O)c3ccc(N4CCOCC4)cc23)cccc1C(F)(F)F [Example 1-1] | 1320 nM | 60 nM | 1090 nM | > 10000 nM
3 | Cc1c([C@@H](C)Nc2n[nH]c(=O)c3ccc(N4CCNCC4)cc23)cccc1C(F)(F)F [Example 1-6] | 114 nM |  |  | 
4 | CNCc1ccccc1-c1csc([C@@H](C)Nc2nn(C)c(=O)c3ccc(N4CCOCC4)cc23)c1 [Example 1-3, (R)methyl-4-((1-(4-(2-((methylamino)methyl)phenyl)thiophenyl)ethyl)amino)-6-morpholinophthalazin-1 (2H)-one] | 265 nM | 14 nM | 522 nM | 997 nM
5 | Cc1c([C@@H](C)Nc2nn(C)c(=O)c3ccc(N4CCOCC4)cc23)cccc1C(F)(F)F [Example 1-4] |  | 3000 nM |  | 
6 | CNCc1ccccc1-c1csc([C@@H](C)Nc2n[nH]c(=O)c3ccc(N4CCOCC4)cc23)c1 [Example 1-2] | 202 nM | 10 nM | 311 nM | 752 nM
